Data published in patent US8022076B2, “Substituted thieno[2,3-d]pyrimidines as potassium channel inhibitors” (Xention Limited, priority 2003, dated 2011).

test system: not given; experiment: not given; conditions: not given

melting point	Molecule
77 to 79 °C	c1ccc(-c2csc3ncnc(NCc4ccco4)c23)cc1 [Example 83, Furan-2-ylmethyl-(5-phenyl-thieno[2,3-d]pyrimidin-4-yl)-amine]
90 to 92 °C	OCCc1nc(NCc2ccccn2)c2c(-c3ccccc3)csc2n1 [Example 250, 2-{5-Phenyl-4-[(pyridin-2-ylmethyl)amino]thieno[2,3-d]pyrimidin-2-yl}ethanol]
184 to 185 °C	Cn1ccc2cc(-c3csc4ncnc(NCc5ccccn5)c34)ccc21 [Example 312, [5-(1-Methyl-1H-indol-5-yl)thieno[2,3-d]pyrimidin-4-yl]pyridin-2-ylmethylamine]
97 to 99 °C	ClCc1nc(NCc2ccccn2)c2c(-c3ccccc3)csc2n1 [Example 301, (2-Chloromethyl-5-phenylthieno[2,3-d]pyrimidin-4-yl)pyridin-2-ylmethylamine]
109 to 111 °C	c1ccc(-c2csc3nc(NCC4CC4)nc(NCc4ccccn4)c23)cc1 [Example 188, N^2-Cyclopropylmethyl-5-phenyl-N^4-pyridin-2-ylmethyl-thieno[2,3-d]pyrimidine-2,4-diamine]
110 to 112 °C	Cc1nc(NCc2ccccn2)c2c(-c3ccccc3)csc2n1 [Example 101, 2-Methyl-N-(2-pyridyl)methyl-5-phenylthieno[2,3-d]pyrimidin-4-ylamine]

target: T1, human Kv1.5 (Homo sapiens, UniProt P22460); experiment: Kv1.5 Rb+ efflux assay; assay type: cell-based; conditions: inhibition of 86Rb+ efflux through Kv1.5, cells stably transfected with human Kv1.5, 10 point concentration response curves n=2
T1 construct: expressed in transfected cells; stably transfected, blasticidin selection
T1 sequence (P22460 whole entry): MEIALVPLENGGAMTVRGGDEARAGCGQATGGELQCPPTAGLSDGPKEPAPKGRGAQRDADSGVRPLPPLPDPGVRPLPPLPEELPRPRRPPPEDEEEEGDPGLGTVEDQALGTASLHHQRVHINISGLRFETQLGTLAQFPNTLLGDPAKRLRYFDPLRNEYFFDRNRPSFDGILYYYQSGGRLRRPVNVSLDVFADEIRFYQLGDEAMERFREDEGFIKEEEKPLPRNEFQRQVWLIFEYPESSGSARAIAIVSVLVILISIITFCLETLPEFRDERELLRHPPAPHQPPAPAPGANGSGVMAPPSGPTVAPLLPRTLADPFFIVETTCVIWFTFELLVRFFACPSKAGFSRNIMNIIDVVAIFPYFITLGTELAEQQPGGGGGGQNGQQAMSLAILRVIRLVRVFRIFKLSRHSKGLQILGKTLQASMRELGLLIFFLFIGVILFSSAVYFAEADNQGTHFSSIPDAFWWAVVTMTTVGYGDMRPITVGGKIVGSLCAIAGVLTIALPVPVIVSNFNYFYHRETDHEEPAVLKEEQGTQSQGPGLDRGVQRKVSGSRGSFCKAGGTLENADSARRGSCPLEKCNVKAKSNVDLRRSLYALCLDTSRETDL
Method: The pore of a potassium channel is permeable to other monovalent cations such as Rb^+ and Tl^+. Analysis of cellular efflux of potassium channel permeable ions enables potassium channel activity to be monitored directly. Cells stably transfected with cDNA for human Kv1.5 (in pEF6::VA-His-TOPO) were grown in Dulbecco's Modified Eagle media (DMEM) alpha supplemented with 10% Fetal Calf Serum (FCS), 20 μl/ml penicillin (5000 U/ml) streptomycin (5000 μg/ml), 10 μl/ml [100×] glutamine, and blasticidin (7.5 μg/ml). Cells were dispensed into 96 well cellstar TC plates and allowed to grow until a confluent monolayer was visible. On the morning of the assay run, cold media was aspirated using the TECAN plate washer, and a 50 μl media spike containing 2 μCi/ml (37 kBq/ml) ^86Rb^+ added to each well containing cells using the Shallow-Well Matrix Platemate. Plates were placed in a incubator at 37° C. for a minimum of 3 hours. Unloaded ^86Rb^+ in the “hot” media was aspirated and each well washed 4×250 μl with Earls Balanced Salt Solution (EBSS) which contained 5 mM KCl, 140 mM NaCl, 2 mM CaCl2, 1 mM MgSO4, 10 mM HEPES, and 5 mM glucose, pH 7.4, 290-300 mOsm. These cells were then pre-incubated with 50 μl of EBSS+/−test compounds for 10 minutes at room temperature. After the 10 minute incubation, 50 μl of modified EBSS which contained 145 mM KCl, 2 mM CaCl2, 1 mM MgSO4, 10 mM HEPES, 5 mM glucose, pH 7.4, 290-300 mOsm, was added, and the cells were incubated for a further 10 minutes at room temperature. The high KCl EBSS was used to depolarise cells to a membrane potential that would activate Kv1.5 channels. After the final incubation 80 μl/100 μl of the reaction from each well was transferred to equivalent wells in a Packard “Optiplate” white 96 well plate and counted in a Packard TopCount liquid scintillation counter by Cerenkov emission. Percentage inhibition ^86Rb^+ efflux through Kv1.5 was calculated by normalisation to 2.5 mM 4 amino-pyridine control block of Kv1.5. Alternatively cells were loaded with ^85Rb^+ and quantified by atomic absorption spectroscopy. IC50 determinations were derived from 10 point concentration response curves n=2 using the method described above. Data was fitted as variable slope sigmoidal fit using Graphpad Prism (V3.02) software.

IC50	Molecule
370 nM	CC(Nc1ncnc2scc(-c3ccccc3)c12)c1ccccn1 (centres unmarked) [Example 149, (5-Phenyl-thieno[2,3-d]pyrimidin-4-yl)-(1-pyridin-2-yl-ethyl)-amine]
280 nM	COCCNc1nc(NCc2ccccn2)c2c(-c3ccccc3)csc2n1 [Example 189, N^2-(2-Methoxyethyl)-5-phenyl-N^4-(pyridin-2-ylmethyl)thieno[2,3-d]pyrimidine-2,4-diamine]
220 nM	COc1ccc(-c2csc3ncnc(NCc4ccccn4)c23)cc1 [Example 138, [5-(4-Methoxy-phenyl)-thieno[2,3-d]pyrimidin-4-yl]-pyridin-2-ylmethyl-amine]
2180 nM	Nc1nc(NCc2ccccn2)c2c(-c3ccccc3)csc2n1 [Example 192, 5-Phenyl-N-4-pyridin-2-ylmethyl-thieno[2,3-d]pyrimidine-2,4-diamine]
570 nM	CN(C)c1nc(NCc2ccccn2)c2c(-c3ccccc3)csc2n1 [Example 198, N^2,N^2-Dimethyl-5-phenyl-N^4-pyridin-2-ylmethyl-thieno[2,3-d]pyrimidine-2,4-diamine]

target: hKv1.5 (Homo sapiens, UniProt P22460); experiment: Kv1.5 Autopatch electrophysiology (whole cell patch-clamp); assay type: cell-based; conditions: hKv1.5 current, compound at 1 μM
Sequence (P22460 whole entry): as above
Method: The external bathing solution contained (in mM): 150 NaCl, 10 KCl, […], 3 MgCl2, 1 CaCl2, 10 HEPES, pH 7.4. Patch pipettes were filled with an electrode solution of composition (in mM): 160 KCl, 0.5 MgCl2, 10 HEPES, 1 EGTA, pH 7.4 with KOH.
Compounds were dissolved in DMSO (100%) and made up in the external bather at a concentration of 1 μM. All experiments were conducted at room temperature (22-24° C.).
A cell suspension (10 ml), with a density of 100,000 cells/ml, was aliquoted into a 15 ml centrifuge tube and transferred to an incubator (37° C., 5% CO2) for approximately one hour before use. Following 60 min incubation, a tube was taken and centrifuged at 1000 rpm for 4 mins at room temperature. 9.5 ml supernatant was thence discarded, leaving a cell pellet at the bottom of the tube. The pellet was then resuspended using 100 μl of cold (4° C.), filtered (0.22 μm), 0.2% BSA/bather solution (0.02 g BSA/10 ml bather). The bottom of the tube was manually agitated gently until the solution became cloudy with cells. The 100 μl cell resuspension solution was then stored on the bench at 4° C. (using a Peltier-based temperature control device) until used.
A length of capillary glass (1B150E-4, WPI) was dipped into the cell suspension solution, such that ˜3 cm column of fluid was taken up by capillary action. A Ag/AgCl wire was dropped into the non-dipped end of the capillary also. The outside of the solution-filled end of the capillary was then dried and the capillary was loaded into the AutoPatch™
Borosilicate glass patch pipettes (from 1.5 mm OD, thin-walled filamented, GC150-TF capillary glass, Harvard) were pulled using a DMZ pipette puller (Zeitz Instruments), and were back-filled using the internal pipette solution, being careful that no bubbles remain at the tip or in the body of the pipette. […]
Electrophysiology voltage-step protocols and analysis of data was performed as follows. […] Currents were analysed using Pulsefit software (v8.54, HEKA, Germany), with the total charge measured during the whole of the voltage step. […]

inhibition at 1 µM	Molecule	% Inhibition at 1 μM
	3-{5-Phenyl-4-[(pyridin-2-ylmethyl)-amino]-thieno[2,3-d]pyrimidin-2-ylamino)}-propane-1,2-diol [Example 214]	87.0%
73.4%	c1ccc(-c2csc3ncnc(NCC4CCCCC4)c23)cc1 [Example 89, Cyclohexylmethyl-(5-phenyl-thieno[2,3-d]pyrimidin-4-yl)-amine]	
	COCc1nc(NCc2ccccn2)c2c(-c3ccccc3)csc2n1 [Example 305, (2-Methoxymethyl-5-phenylthien[2,3-d]primidin-4-yl)pyridin-2-ylmethylamine]	94.0%
